From ChEMBL document CHEMBL1122975, “Potential inhibitors of S-adenosylmethionine-dependent methyltransferases. 9. 2',3'-Dialdehyde derivatives of carbocyclic purine nucleosides as inhibitors of S-adenosylhomocysteine hydrolase” (J Med Chem, 1985)

Key:
L929 = experiment: Percentage inhibition of plaque formation, after 72 hr of incubation in virus plaque assay, prepared from monolayer cultures of mouse L 929 cells; type: functional; design: concentration or dose not given beside the values
[1] = tested on: Adenosylhomocysteinase (Bos taurus); experiment: Compound is evaluated for the inhibition of bovine liver S-adenosyl-homocysteine hydrolase at a concentration of 2.0 mM
L cells [2] = experiment: Percentage control of incorporation of [3H]thymidine into DNA of uninfected L-cell cultures after 36h exposure; type: functional, Mus musculus, L929; design: concentration or dose not given beside the values
L cells [3] = experiment: Percentage control of incorporation of [3H]thymidine into DNA of uninfected L-cell cultures after 72 hr exposure; type: functional, Mus musculus, L929; design: concentration or dose not given beside the values

SMILES	Inhibition (L929)	inhibition [1]	Control (L cells [2])	Control (L cells [3])
Nc1ncnc2c1ncn2C(CO)CC(CO)CO (configuration not stated)	13%	98%		
Nc1nccc2c1ncn2C(C=O)CC(C=O)CO (configuration not stated)	91%		107%	133%
Nc1ncnc2c1nnn2C(CO)CC(CO)CO (configuration not stated)	11%	94%		
CNc1ncnc2c1ncn2C(C=O)CC(C=O)CO (configuration not stated)	60%		63%	106%
Nc1ncnc2c1nnn2C(C=O)CC(C=O)CO (configuration not stated)	63%		91%	81%
CNc1ncnc2c1ncn2C(CO)CC(CO)CO (configuration not stated)	7%	82%		
Nc1nccc2c1ncn2C(CO)CC(CO)CO (configuration not stated)	9%	94%		
Nc1ncnc2c1nnn2C1CC(CO)C(O)C1O (configuration not stated)	7%		89%	146%
Nc1ncnc2c1ncn2C(C=O)CC(C=O)CO (configuration not stated)	75%		67%	130%
Nc1nccc2c1ncn2[C@@H]1C[C@H](CO)[C@@H](O)[C@H]1O [3-DEAZAARISTEROMYCIN A]	95%		86%	246%
CNc1ncnc2c1ncn2C1CC(CO)C(O)C1O (configuration not stated)	19%		95%	137%
Nc1ncnc2c1ncn2[C@@H]1C[C@H](CO)[C@@H](O)[C@H]1O [ARISTEROMYCIN]	65%		81%	134%
